Measured values reported in US8604085B2, “Bupropion hydrobromide polymorphs” (Valeant International Bermuda, priority 2008, dated 2013).
Where two headings read alike, the source gives them in different places.

Assay: Qualitative solubility screening
Assay type: physicochemical
Conditions: thermodynamic from solid, 50 mg in 4 mL, read-out: Solubility at Room Temp (RT)
Procedure: Bupropion hydrobromide (50 mg) was introduced in 4 mL of solvent under stirring for about 1 hour at room temperature. See Table 41 for the qualitative solubility data.

Measured: solubility

Br.CC(NC(C)(C)C)C(=O)c1cccc(Cl)c1 (stereo not drawn) [Bupropion hydrobromide, 3′-chloro-2-t-butylamino-1-propiophenone hydrobromide]
< 12.5 mg/mL: organic solvent or mixture, solvent 1,2-Dimethoxy Ethane | organic solvent or mixture, solvent 1-Octanol | organic solvent or mixture, solvent 3-Pentanone | organic solvent or mixture, solvent 4-Methyl-2-Pentanone | organic solvent or mixture, solvent (±)2-Butanol | organic solvent or mixture, solvent Acetone | organic solvent or mixture, solvent Benzonitrile | organic solvent or mixture, solvent Cyclohexane | organic solvent or mixture, solvent Diethyl Carbonate | organic solvent or mixture, solvent Diethyl Ether | organic solvent or mixture, solvent Dioxane | organic solvent or mixture, solvent Ethyl Acetate | organic solvent or mixture, solvent Ethyl Benzoate | organic solvent or mixture, solvent Ethyl Formate | organic solvent or mixture, solvent Iso-Propyl-Ether | organic solvent or mixture, solvent Isopropyl Acetate | organic solvent or mixture, solvent Mesitylene | organic solvent or mixture, solvent Methyl Benzoate | organic solvent or mixture, solvent Methyl Ethyl Ketone | organic solvent or mixture, solvent Methyl-Cyclohexan | organic solvent or mixture, solvent Nitrobenezene | organic solvent or mixture, solvent Propyl Acetate | organic solvent or mixture, solvent Tert-Butanol | organic solvent or mixture, solvent Tetrahydrofuran | organic solvent or mixture, solvent Toluene | organic solvent or mixture, solvent n-Hexan | organic solvent or mixture, solvent n-Hexane | organic solvent or mixture, solvent p-Xylene | organic solvent or mixture, solvent t-Butyl Methyl Ether
> 12.5 mg/mL: organic solvent or mixture, solvent 1-Butanol | organic solvent or mixture, solvent 1-Methyl-2-Pyrrolidone | organic solvent or mixture, solvent 1-Propanol | organic solvent or mixture, solvent 2-Methoxy Ethanol | organic solvent or mixture, solvent 2-Methyl-1-Propanol | organic solvent or mixture, solvent 2-Propanol | organic solvent or mixture, solvent Acetonitrile | organic solvent or mixture, solvent Benzyl Alcohol | organic solvent or mixture, solvent Chloroform | organic solvent or mixture, solvent Dichloromethane | organic solvent or mixture, solvent Dimethil sulfoxyde | organic solvent or mixture, solvent Dimethyl Formamide | organic solvent or mixture, solvent Ethanol | organic solvent or mixture, solvent Methanol | organic solvent or mixture, solvent Nitromethane | water, solvent Water
